Measured values as given in patent publication US12162858B2, “Quinoline derivatives as inhibitors of AXL/MER RTK and CSF1R” (QURIENT CO., LTD., priority 2018, dated 2024).

What was measured:
Axl (Ba/F3 cells) = target: T1, Axl (Ba/F3 cells) (Homo sapiens, UniProt P30530); assay: BaF3 viability assay, Axl-dependent cells; assay type: cell-based; conditions: read-out: Cellular Axl activity by Ba/F3 assay (IC50)
T1 sequence (P30530 1-894): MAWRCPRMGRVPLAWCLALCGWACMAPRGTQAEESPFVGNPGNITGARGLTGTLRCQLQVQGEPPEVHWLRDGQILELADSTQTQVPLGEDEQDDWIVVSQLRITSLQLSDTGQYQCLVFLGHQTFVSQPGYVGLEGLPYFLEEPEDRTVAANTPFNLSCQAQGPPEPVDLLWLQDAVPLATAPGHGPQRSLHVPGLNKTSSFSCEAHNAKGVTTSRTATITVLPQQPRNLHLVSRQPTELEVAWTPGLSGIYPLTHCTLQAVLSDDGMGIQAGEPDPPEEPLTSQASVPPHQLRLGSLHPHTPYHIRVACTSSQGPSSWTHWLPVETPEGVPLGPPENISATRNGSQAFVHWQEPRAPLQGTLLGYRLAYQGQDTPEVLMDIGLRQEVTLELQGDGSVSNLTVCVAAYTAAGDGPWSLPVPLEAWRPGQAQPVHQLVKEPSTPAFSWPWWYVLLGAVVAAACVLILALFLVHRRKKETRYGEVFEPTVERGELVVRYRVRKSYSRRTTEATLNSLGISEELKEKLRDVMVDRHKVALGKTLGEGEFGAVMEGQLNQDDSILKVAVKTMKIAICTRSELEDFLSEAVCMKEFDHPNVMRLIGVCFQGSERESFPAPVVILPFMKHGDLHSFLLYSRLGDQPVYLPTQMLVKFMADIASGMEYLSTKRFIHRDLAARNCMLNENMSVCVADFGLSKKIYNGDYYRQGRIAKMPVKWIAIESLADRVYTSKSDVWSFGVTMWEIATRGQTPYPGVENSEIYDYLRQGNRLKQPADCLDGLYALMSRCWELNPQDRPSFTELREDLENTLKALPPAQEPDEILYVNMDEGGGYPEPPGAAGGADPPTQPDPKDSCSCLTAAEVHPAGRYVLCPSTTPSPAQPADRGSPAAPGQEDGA
Excerpt: (§1) In this system, IL-3-dependent Ba/F3 cells are modified to express an activated recombinant kinase (in the present case Axl, Mer and CSF1R). Following removal of IL-3, the modified cells are dependent on the activity of the recombinant kinase for survival and proliferation. Inhibition of such kinase(s) through test compounds reduces survival and proliferation of the cells.
(§2) Cell lines were maintained in growth media (GM) consisting of RPMI 1640 supplemented with 10% FBS. Cells in logarithmic-phase growth were harvested and 5,000 cells were distributed into each well of a 384-well plate in 50 μl GM. Parental cells (or experimental assays where specified) were further supplemented with 2 ng/ml IL-3 to support cell growth and survival. Fifty nanoliters of the indicated reference standard or experimental compound were added to appropriate wells (in duplicate) and the cells were cultured for 48 h at 37° C./5% CO2. Viability was determined by adding 10 μl Cell Titer Glo and measuring luminescence, which is reported as relative light units (RLU) measured in counts per second. The following calculations and formulas are used for data analysis using GraphPad Prism software: The curve fitting was made using the Dose response curves-Inhibition.

CSF1R (Ba/F3 cells) = CSF1R (Ba/F3 cells) (Homo sapiens, UniProt P07333); assay: BaF3 viability assay, CSF1R-dependent cells; assay type: cell-based; conditions: read-out: Cellular CSF1R activity by Ba/F3 assay (IC50)
Excerpt: as §1, §2

Chain of CSF1R (Ba/F3 cells) (P07333 whole entry, change not shown): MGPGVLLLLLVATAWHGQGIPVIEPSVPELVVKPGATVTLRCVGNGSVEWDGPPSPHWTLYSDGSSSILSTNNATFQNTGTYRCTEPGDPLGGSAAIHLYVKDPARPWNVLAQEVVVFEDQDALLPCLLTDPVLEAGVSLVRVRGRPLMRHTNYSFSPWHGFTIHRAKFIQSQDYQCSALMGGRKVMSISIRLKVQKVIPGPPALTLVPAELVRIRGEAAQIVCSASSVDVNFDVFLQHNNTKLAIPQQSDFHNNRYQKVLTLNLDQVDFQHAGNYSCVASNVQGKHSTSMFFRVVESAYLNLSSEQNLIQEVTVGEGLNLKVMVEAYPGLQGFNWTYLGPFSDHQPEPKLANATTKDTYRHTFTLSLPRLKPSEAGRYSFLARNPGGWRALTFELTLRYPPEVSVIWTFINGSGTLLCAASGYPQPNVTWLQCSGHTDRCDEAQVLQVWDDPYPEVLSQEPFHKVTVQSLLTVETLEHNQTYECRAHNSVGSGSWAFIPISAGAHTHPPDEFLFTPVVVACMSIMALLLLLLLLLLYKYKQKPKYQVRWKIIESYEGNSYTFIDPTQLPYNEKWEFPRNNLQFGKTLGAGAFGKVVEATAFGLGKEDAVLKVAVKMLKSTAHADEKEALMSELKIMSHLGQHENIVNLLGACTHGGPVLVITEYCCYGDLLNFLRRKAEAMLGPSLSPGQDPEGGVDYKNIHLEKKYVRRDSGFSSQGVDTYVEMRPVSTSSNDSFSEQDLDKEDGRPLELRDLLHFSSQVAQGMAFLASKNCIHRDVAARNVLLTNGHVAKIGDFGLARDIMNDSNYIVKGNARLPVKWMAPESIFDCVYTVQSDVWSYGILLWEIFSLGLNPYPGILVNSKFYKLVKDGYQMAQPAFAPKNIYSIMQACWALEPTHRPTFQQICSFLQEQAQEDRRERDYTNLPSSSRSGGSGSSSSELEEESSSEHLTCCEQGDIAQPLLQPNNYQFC

COc1cc2nccc(Oc3ccc(NC(=O)c4nn(C5CC5)cc4OCC(F)(F)F)nc3)c2cc1OC [Compound 5]
GI50 (Axl (Ba/F3 cells)): < 1000 nM
GI50 (CSF1R (Ba/F3 cells)): < 1000 nM
